Laboratory results as given in US20080299076A1, “Compunds and compositions that cause non-apoptotic cell death and uses thereof” (priority 2006, published 2008).

Columns and labels:
[1] = tested on: U-2 OS; assay: Response of tumor cell lines to erastin (dose-response); type: cell-based
Method: (§1) Given that oncogenic RAS activates at least four downstream pathways, analysis was performed to identify which downstream effects were necessary for erastin sensitivity. In certain embodiments, the invention provides that erastin inhibits growth and kills genuine tumor cells with RAS mutations. In other embodiments, the invention provides measures of the dose-response of 29 tumor cell lines to erastin, wherein there is at least 50% inhibition of viability in 18 of the cell lines (Table 4). Numerous sarcoma-derived tumor cell lines were sensitive to erastin, consistent with the fact that erastin was discovered in an engineered tumor cell line created from human fibroblasts.

[2] = tested on: C-33A; assay: as above; type: cell-based
Method: as §1

[3] = tested on: HeLa; assay: as above; type: cell-based
Method: as §1

[4] = tested on: A431NS; assay: as above; type: cell-based; conditions: Epidermoid carcinoma
Method: as §1

[5] = tested on: TC71; assay: as above; type: cell-based
Method: as §1

[6] = tested on: Hs 925.T; assay: as above; type: cell-based
Method: as §1

[7] = tested on: SK-N-MC; assay: as above; type: cell-based
Method: as §1

[8] = tested on: TC32; assay: as above; type: cell-based
Method: as §1

[9] = tested on: SK-UT; assay: as above; type: cell-based
Method: as §1

[10] = tested on: MES-SA; assay: as above; type: cell-based
Method: as §1

[11] = tested on: SW982; assay: as above; type: cell-based; conditions: SW982, synovial sarcoma
Method: as §1

[12] = tested on: HOS; assay: as above; type: cell-based
Method: as §1

[13] = tested on: HCT 116; assay: as above; type: cell-based; conditions: HCT 116, colorectal carcinoma
Method: as §1

[14] = tested on: SK-ES-1; assay: as above; type: cell-based
Method: as §1

[15] = tested on: SJSA-1; assay: as above; type: cell-based
Method: as §1

[16] = tested on: A549; assay: as above; type: cell-based; conditions: A549, lung carcinoma
Method: as §1

[17] = tested on: U973; assay: as above; type: cell-based
Method: as §1

[18] = tested on: EWS502; assay: as above; type: cell-based
Method: as §1

[19] = tested on: SK-LMS-1; assay: as above; type: cell-based
Method: as §1

[20] = tested on: LNCaP; assay: as above; type: cell-based
Method: as §1

[21] = tested on: MX2; assay: as above; type: cell-based
Method: as §1

[22] = tested on: SW872; assay: as above; type: cell-based
Method: as §1

[23] = tested on: SVR; assay: as above; type: cell-based
Method: as §1

[24] = tested on: VDAC2, VDAC3; assay: VDAC isoform levels after erastin treatment (quantitative 2D western); type: cell-based, human
Source text: Quantitative western blot of VDAC/eif4E protein ratio in engineered BJ-derived cells. (b) Identification of VDAC isoforms in BJ-TERT/LT/ST/RAS^V12 cells using 2-D electrophoresis. i) VDAC1, VDAC2 and VDAC3 were detected by a rabbit polyclonal VDAC antibody (Abcam/ab3434), ii) VDAC1 was detected by a mouse monoclonal VDAC1 antibody (Calbiochem/529534), iii) VDAC2 was detected by a goat polyclonal VDAC2 antibody (Abcam/ab22170), iv) An illustration of 3 isoforms of VDAC separated by the 2-D gel electrophoresis. (c) BJ-TERT/LT/ST/RAS^V12 cells were treated with erastin for the indicated time and levels of each VDAC isoform determined by quantitative 2D western. (d,e) Infection with VDAC3 shRNA protects erastin-treated cells. 293T cells were transfected with shRNA-plasmid construct using FuGene and viral supernatant transferred to HT1080 cells, and treated with erastin dilutions and viability measured using Trypan Blue exclusion. […] (f) Quantitative RT-PCR measurements of mRNA levels of the 3 VDAC isoforms after infection with shVDAC3. Knockdown was determined by normalizing to the levels in the shGFP-infected control. […] (g) Mitochondria were purified from yeast expressing murine VDAC3 in place of yeast VDAC, and the rate of NADH uptake determined in the presence or absence of erastin, or in shocked mitochondria in which the outer membrane was disrupted. […]

CCOc1ccccc1-n1c(C(C)N2CCN(C(=O)COc3ccc(Cl)cc3)CC2)nc2ccccc2c1=O (centres unmarked) [erastin, 2-(1-{4-[2-(4-Chloro-phenoxy)-acetyl]-piperazin-1-yl}-ethyl)-3-(2-ethoxy-phenyl)-3H-quinazolin-4-one]
EC50 ([1]; Homo sapiens, U2OS): 6 µM
Max % killing ([1]; Osteosarcoma): 96%
EC50 ([2]; Homo sapiens): 0.6 µM
Max % killing ([2]; cervical carcinoma): 21%
Max % killing ([3]; Cervical carcinoma): 94%
EC50 ([3]; Homo sapiens): 0.6 µM
Max % killing [4]: 0%
Erastin Sensitivity (maximum percent killing, as fraction) ([5]; TC 71): 0.92
Max % killing ([5]; TC71, Ewing sarcoma): 92%
EC50 ([5]; TC-71, TC71): 10 µM
EC50 [6]: 17 µM
Max % killing ([6]; Pagetoid sarcoma): 83%
EC50 ([7]; Homo sapiens, SK-N-MC): 10 µM
Erastin Sensitivity (maximum percent killing, as fraction) ([7]; SK N MC): 0.95
Max % killing ([7]; SK-N-MC, Neuroepithelioma): 95%
EC50 ([8]; Homo sapiens, TC-32, TC32): 8 µM
Erastin Sensitivity (maximum percent killing, as fraction) ([8]; TC 32): 0.88
Max % killing ([8]; TC32, Peripheral neuroepithelioma): 88%
EC50 [9]: 4 µM
Max % killing ([9]; Uterine, mixed mesodermal tumor): 73%
EC50 ([10]; Homo sapiens): 3 µM
Max % killing ([10]; Uterine sarcoma): 100%
Max % killing [11]: 0%
EC50 ([12]; Homo sapiens): 17 µM
Max % killing ([12]; Osteosarcoma): 100%
Max % killing [13]: 0%
EC50 ([14]; Homo sapiens, SK-ES1, SK-ES-1): 7 µM
Max % killing ([14]; SK-ES-1, Ewing sarcoma): 96%
Erastin Sensitivity (maximum percent killing, as fraction) ([14]; SKES1): 0.96
EC50 ([15]; Homo sapiens, SJSA-1): 12 µM
Max % killing ([15]; SJSA-1, Osteosarcoma): 100%
Max % killing [16]: 0%
Erastin Sensitivity (maximum percent killing, as fraction) ([17]; U937): 0.73
Max % killing ([17]; U973, Acute myelogenous leukemia): 73%
EC50 ([17]; U-973, U973): 10 µM
EC50 ([18]; EWS502): 10 µM
Erastin Sensitivity (maximum percent killing, as fraction) ([18]; EWS502): 0.42
Max % killing ([18]; EWS502, Ewing sarcoma): 42%
EC50 ([19]; Homo sapiens, SK-LMS-1): 6 µM
Max % killing ([19]; SK-LMS-1, Leimyosarcoma, vulva): 100%
EC50 ([20]; Homo sapiens): 6 µM
Max % killing ([20]; prostate carcinoma): 32%
EC50 ([21]; MX2): 18 µM
Max % killing ([21]; MX2, Uterine Sarcoma): 71%
Erastin Sensitivity (maximum percent killing, as fraction) ([22]; SW 872): 0.00
Max % killing ([22]; SW872, Liposarcoma): 0%
EC50 ([23]; Mus musculus): 2.5 µM
Max % killing ([23]; Pancreatic carcinoma): 20%
VDAC3 protein level ([24]; after 8 hours of erastin treatment): no longer detectable
VDAC2 protein level ([24]; after 10 hours of erastin treatment): undetectable
